Reference: PubChem BioAssay (NCI)
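Five concentrations, 48 hours, 96-well plates. GI50 is the concentration that inhibits growth by half. TGI marks complete inhibition of growth.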

Experiments:
Assay in all cases: growth of human tumour cells (NCI), 48 h
786-0 renal = tested on: 786-0 renal
A498 renal = tested on: A498 renal
A549 NSCLC = tested on: A549 NSCLC
ACHN renal = tested on: ACHN renal
BT-549 breast = tested on: BT-549 breast
CAKI-1 renal = tested on: CAKI-1 renal
CCRF-CEM leukemia = tested on: CCRF-CEM leukemia
COLO 205 colon = tested on: COLO 205 colon
DU-145 prostate = tested on: DU-145 prostate
EKVX NSCLC = tested on: EKVX NSCLC
HCC-2998 colon = tested on: HCC-2998 colon
HCT-116 colon = tested on: HCT-116 colon
HCT-15 colon = tested on: HCT-15 colon
HL-60(TB) leukemia = tested on: HL-60(TB) leukemia
HOP-62 NSCLC = tested on: HOP-62 NSCLC
HOP-92 NSCLC = tested on: HOP-92 NSCLC
HS 578T breast = tested on: HS 578T breast
HT29 colon = tested on: HT29 colon
IGROV1 ovarian = tested on: IGROV1 ovarian
K-562 leukemia = tested on: K-562 leukemia
KM12 colon = tested on: KM12 colon
LOX IMVI melanoma = tested on: LOX IMVI melanoma
M14 melanoma = tested on: M14 melanoma
MALME-3M melanoma = tested on: MALME-3M melanoma
MCF7 breast = tested on: MCF7 breast
MDA-MB-231 breast = tested on: MDA-MB-231 breast
MDA-MB-435 = tested on: MDA-MB-435
MDA-MB-468 breast = tested on: MDA-MB-468 breast
MOLT-4 leukemia = tested on: MOLT-4 leukemia
NCI-H226 lung = tested on: NCI-H226 lung
NCI-H23 lung = tested on: NCI-H23 lung
NCI-H460 lung = tested on: NCI-H460 lung
NCI-H522 lung = tested on: NCI-H522 lung
NCI/ADR-RES ovarian = tested on: NCI/ADR-RES ovarian
OVCAR-3 ovarian = tested on: OVCAR-3 ovarian
OVCAR-4 ovarian = tested on: OVCAR-4 ovarian
OVCAR-5 ovarian = tested on: OVCAR-5 ovarian
OVCAR-8 ovarian = tested on: OVCAR-8 ovarian
PC-3 prostate = tested on: PC-3 prostate
RPMI-8226 leukemia = tested on: RPMI-8226 leukemia
RXF 393 renal = tested on: RXF 393 renal
SF-268 CNS = tested on: SF-268 CNS
SF-295 CNS = tested on: SF-295 CNS
SF-539 CNS = tested on: SF-539 CNS
SK-MEL-2 melanoma = tested on: SK-MEL-2 melanoma
SK-MEL-28 melanoma = tested on: SK-MEL-28 melanoma
SK-MEL-5 melanoma = tested on: SK-MEL-5 melanoma
SK-OV-3 ovarian = tested on: SK-OV-3 ovarian
SN12C renal = tested on: SN12C renal
SNB-19 CNS = tested on: SNB-19 CNS
SNB-75 CNS = tested on: SNB-75 CNS
SR leukemia = tested on: SR leukemia
SW-620 colon = tested on: SW-620 colon
T-47D breast = tested on: T-47D breast
TK-10 renal = tested on: TK-10 renal
U251 CNS = tested on: U251 CNS
UACC-257 melanoma = tested on: UACC-257 melanoma
UACC-62 melanoma = tested on: UACC-62 melanoma
UO-31 renal = tested on: UO-31 renal

With `O=C(NNC(=S)NC(=O)c1ccccc1)c1ccc(OCc2nc3ccc(Cl)cc3[nH]2)cc1` the GI50 (786-0 renal) was 2.05 µM, the TGI (786-0 renal) was 6.12 µM and the GI50 (A498 renal) was 1.6 µM. It also gave a TGI (A498 renal) of 4.39 µM, a GI50 (A549 NSCLC) of 1.99 µM and a TGI (A549 NSCLC) of 4.49 µM. The GI50 (ACHN renal) was 2.04 µM, the TGI (ACHN renal) was 5.82 µM and the GI50 (BT-549 breast) was 1.54 µM. It also gave a TGI (BT-549 breast) of 3.14 µM, a GI50 (CAKI-1 renal) of 2.48 µM and a TGI (CAKI-1 renal) of 9.45 µM. For the same compound, the GI50 (CCRF-CEM leukemia) was 1.44 µM, the TGI (CCRF-CEM leukemia) was 10.5 µM and the GI50 (COLO 205 colon) was 2.66 µM. The TGI (COLO 205 colon) was 9.34 µM, the GI50 (DU-145 prostate) was 3.02 µM and the TGI (DU-145 prostate) was 15.3 µM. For the same compound, the GI50 (EKVX NSCLC) was 2.12 µM, the TGI (EKVX NSCLC) was 5.75 µM and the GI50 (HCC-2998 colon) was 1.68 µM. The TGI (HCC-2998 colon) was 3.35 µM, the GI50 (HCT-116 colon) was 1.52 µM and the TGI (HCT-116 colon) was 3.51 µM. For the same compound, the GI50 (HCT-15 colon) was 0.567 µM, the TGI (HCT-15 colon) was 2.13 µM and the GI50 (HL-60(TB) leukemia) was 2.22 µM. The TGI (HL-60(TB) leukemia) was 7.24 µM, the GI50 (HOP-62 NSCLC) was 1.76 µM and the TGI (HOP-62 NSCLC) was 3.56 µM. For the same compound, the GI50 (HOP-92 NSCLC) was 2.18 µM, the TGI (HOP-92 NSCLC) was 6.26 µM and the GI50 (HS 578T breast) was 2.17 µM. The TGI (HS 578T breast) was 7.3 µM, the GI50 (HT29 colon) was 3.45 µM and the TGI (HT29 colon) was 13.7 µM. The GI50 (IGROV1 ovarian) was 2.18 µM, the TGI (IGROV1 ovarian) was 5.33 µM and the GI50 (K-562 leukemia) was 2.79 µM. For the same compound, the TGI (K-562 leukemia) was greater than 100 µM, the GI50 (KM12 colon) was 1.89 µM and the TGI (KM12 colon) was 4.11 µM. For the same compound, the GI50 (LOX IMVI melanoma) was 1.26 µM, the TGI (LOX IMVI melanoma) was 2.64 µM and the GI50 (M14 melanoma) was 1.55 µM. For the same compound, the TGI (M14 melanoma) was 3.79 µM, the GI50 (MALME-3M melanoma) was 1.53 µM and the TGI (MALME-3M melanoma) was 3.08 µM. It also gave a GI50 (MCF7 breast) of 2.91 µM, a TGI (MCF7 breast) of 17.7 µM and a GI50 (MDA-MB-231 breast) of 1.71 µM. For the same compound, the TGI (MDA-MB-231 breast) was 3.37 µM, the GI50 (MDA-MB-435) was 1.81 µM and the TGI (MDA-MB-435) was 4.37 µM. The GI50 (MDA-MB-468 breast) was 2.52 µM, the TGI (MDA-MB-468 breast) was 9.45 µM and the GI50 (MOLT-4 leukemia) was 2.22 µM. It also gave a TGI (MOLT-4 leukemia) of 10.2 µM, a GI50 (NCI-H226 lung) of 2.02 µM and a TGI (NCI-H226 lung) of 7.82 µM. The GI50 (NCI-H23 lung) was 1.78 µM, the TGI (NCI-H23 lung) was 3.7 µM and the GI50 (NCI-H460 lung) was 1.26 µM. For the same compound, the TGI (NCI-H460 lung) was 3.6 µM, the GI50 (NCI-H522 lung) was 3.3 µM and the TGI (NCI-H522 lung) was 13.4 µM. It also gave a GI50 (NCI/ADR-RES ovarian) of 0.396 µM, a TGI (NCI/ADR-RES ovarian) of 2.55 µM and a GI50 (OVCAR-3 ovarian) of 1.85 µM. It also gave a TGI (OVCAR-3 ovarian) of 4.55 µM, a GI50 (OVCAR-4 ovarian) of 2.34 µM and a TGI (OVCAR-4 ovarian) of 14.8 µM. For the same compound, the GI50 (OVCAR-5 ovarian) was 1.8 µM, the TGI (OVCAR-5 ovarian) was 3.93 µM and the GI50 (OVCAR-8 ovarian) was 2.1 µM. The TGI (OVCAR-8 ovarian) was 5.07 µM, the GI50 (PC-3 prostate) was 1.79 µM and the TGI (PC-3 prostate) was 4.96 µM. The GI50 (RPMI-8226 leukemia) was 2.83 µM, the TGI (RPMI-8226 leukemia) was 21.6 µM and the GI50 (RXF 393 renal) was 2.32 µM. The TGI (RXF 393 renal) was 6.67 µM, the GI50 (SF-268 CNS) was 2.42 µM and the TGI (SF-268 CNS) was 12 µM. The GI50 (SF-295 CNS) was 1.27 µM, the TGI (SF-295 CNS) was 2.98 µM and the GI50 (SF-539 CNS) was 1.76 µM. It also gave a TGI (SF-539 CNS) of 3.23 µM, a GI50 (SK-MEL-2 melanoma) of 2.08 µM and a TGI (SK-MEL-2 melanoma) of 4.95 µM. For the same compound, the GI50 (SK-MEL-28 melanoma) was 1.65 µM, the TGI (SK-MEL-28 melanoma) was 3.23 µM and the GI50 (SK-MEL-5 melanoma) was 1.78 µM. For the same compound, the TGI (SK-MEL-5 melanoma) was 3.93 µM, the GI50 (SK-OV-3 ovarian) was 2.05 µM and the TGI (SK-OV-3 ovarian) was 4.89 µM. It also gave a GI50 (SN12C renal) of 1.57 µM, a TGI (SN12C renal) of 3.16 µM and a GI50 (SNB-19 CNS) of 2.1 µM. The TGI (SNB-19 CNS) was 6.68 µM, the GI50 (SNB-75 CNS) was 1.48 µM and the TGI (SNB-75 CNS) was 4.78 µM. For the same compound, the GI50 (SR leukemia) was 2.52 µM, the TGI (SR leukemia) was 11.7 µM and the GI50 (SW-620 colon) was 1.99 µM. For the same compound, the TGI (SW-620 colon) was 4.55 µM, the GI50 (T-47D breast) was 3.12 µM and the TGI (T-47D breast) was 18.6 µM. The GI50 (TK-10 renal) was 4.49 µM, the TGI (TK-10 renal) was 21.2 µM and the GI50 (U251 CNS) was 1.71 µM. It also gave a TGI (U251 CNS) of 3.46 µM, a GI50 (UACC-257 melanoma) of 2.85 µM and a TGI (UACC-257 melanoma) of 10.5 µM. It also gave a GI50 (UACC-62 melanoma) of 1.67 µM, a TGI (UACC-62 melanoma) of 3.11 µM and a GI50 (UO-31 renal) of 1.39 µM. For the same compound, the TGI (UO-31 renal) was 4.11 µM.
